In PMC5423977, “Safety, pharmacokinetics, and pharmacodynamics of BMS-986142, a novel reversible BTK inhibitor, in healthy participants” (European Journal of Clinical Pharmacology, 2017):
Read-outs that look alike come from different tables or passages of the source.

Tests used:
[1] = Plasma pharmacokinetics of BMS-986142, SAD; assay type: in vivo; conditions: human, oral; for AUC(0-t): n = 6, read-out: AUC(0-T) geometric mean (%CV); for Cmax: n = 6, read-out: Cmax geometric mean (%CV)
Method: Eligible participants were confined to the clinical facility (WCCT Global, LLC, Cypress, CA) the day before dosing (day −1) and randomized to receive SAD or MAD treatment under fasting conditions for 10 h. In the SAD group, eight healthy non-Japanese participants were assigned to each of up to six sequential dose panels (single oral doses of 5, 15, 50, 100, 300, and 900 mg BMS-986142) or placebo. Within each dose panel, participants were randomized in a 3:1 ratio to receive BMS-986142 (n = 6) or placebo (n = 2). In the MAD group, eight healthy non-Japanese participants were assigned to each of four sequential dose panels (daily oral doses of 25, 75, 200, and 350 mg BMS-986142) or placebo. Within each dose panel, participants were randomized in a 3:1 ratio to receive once-daily (QD) doses of BMS-986142 or placebo from day 1 to day 14 (Online Resource 1). Escalation to the next dose level in SAD and MAD was conducted after safety assessment had been completed and the treatment was considered safe and well tolerated. Additionally, dose levels in MAD were selected not to exceed the steady-state exposure of BMS-986142 (AUC: 22,920 ng h/mL) at NOAEL in rats obtained from a 1-month GLP toxicology study.
(§1) Blood samples for the measurement of BMS-986142 were collected up to 168 h after dosing of BMS-986142 on day 1 for participants in SAD. In MAD, blood samples were collected up to 24 h on day 1 and up to 120 h on day 14 (the last day of treatment). Blood samples for the measurement of MTX were collected up to 48 h after dosing of MTX on days 1 and 8.
(§2) Plasma samples were analyzed for BMS-986142 levels with a validated method using liquid chromatography tandem mass spectrometry (LC-MS/MS) detection. The analyte was extracted from 50 μL of plasma using a liquid–liquid extraction method. Methyl tert-butyl ether was used as the extraction solvent. The lower limit of quantification (LLOQ) was 1.00 ng/mL in plasma. Plasma samples were analyzed for methotrexate levels using LC-MS/MS detection. Analytes were isolated from 50 μL plasma through solid phase extraction using Waters Oasis MAX, 10-mg, 96-well SPE plates. The final extract was analyzed using LC-MS/MS detection. LLOQ was 1.00 ng/mL in plasma. Detailed methodology quantitating the concentration level of BMS-986142 and MTX is provided in Online Resource 10.
(§3) Individual subject pharmacokinetic parameters for BMS-986142 and MTX were derived by a non-compartmental method using validated PK software (WinNonLin version 6.3; Pharsight Corporation, Mountain View, CA, USA). The following PK parameters for BMS-986142 and MTX were derived from plasma concentration versus time data: maximum observed plasma concentration (Cmax); minimum observed plasma concentration (Cmin); time to maximum observed plasma concentration (Tmax); area under the plasma concentration-time curve from time zero to the time of the last quantifiable concentration (AUC(0-T)), from time zero extrapolated to infinite time (AUC(inf)), and in one dosing interval (AUC(TAU)); terminal plasma half-life (T1/2); and AUC accumulation index (AI_AUC). AI_AUC was calculated to divide AUC(TAU) on day 14 by AUC(TAU) on day 1.
Summary statistics were tabulated for all PK parameters by treatment and study days. Geometric mean (Gmean) and coefficient of variation (CV) are presented for Cmax, AUC(0-T), AUC(inf), AI_AUC, Cmin, and AUC(TAU); arithmetic mean and standard deviation (SD) are presented for T1/2; and median and range are presented for Tmax. Dose proportionality was assessed using the previously described power model. Briefly, the simple linear regression was applied to the natural log of the PK parameters on the natural log of dose using the following equation (Eq. 1).1 ElogPKParameterDose=α+β∗logDose.
A slope (β) equal to 1 would indicate perfect dose proportionality. For each PK parameter (Cmax, AUC(0-T), AUC(TAU), and AUC(inf)), point estimates and 90% CI of the slopes were calculated.

[2] = Effect of BMS-986142 on single-dose plasma PK of MTX (DDI); assay type: in vivo, human; conditions: BMS-986142 350 mg QD, MTX 7.5 mg single dose
Method: as §1, §2, §3
Statistical analyses were conducted to assess the effect of coadministration of BMS-986142 on the PK of MTX. For all treatment comparisons, a linear mixed-effect model was fitted to the log-transformed PK parameters Cmax, AUC(0-T), and AUC(inf). Point estimates and 90% CIs for differences on the log-scale were exponentiated to obtain estimates for geometric mean ratios (GMRs) and respective 90% CIs on the original scale. Sample size determination is based on consideration of the precision of the estimate of the GMRs of AUCs of MTX with and without BMS-986142. With 9 evaluable subjects, there will be an 80% probability that the 90% CI of AUC(INF) GMR will be within 89.9 to 111.2% of the point estimate. These precision estimates are based on an assumption that Cmax and AUC(INF) of MTX are log-normally distributed with intrasubject CV of 14.67 and 10.38%, respectively, as calculated from Namour et al..

For Cc1c(-c2c(F)cc(C(N)=O)c3[nH]c4c(c23)CC[C@H](C(C)(C)O)C4)cccc1-n1c(=O)c2cccc(F)c2n(C)c1=O [BMS-986142, 6-fluoro-5-(R)-(3-(S)-(8-fluoro-1-methyl-2,4-dioxo-1,2-dihydroquinazolin-3(4H)-yl)-2-methylphenyl)-2-(S)-(2-hydroxypropan-2-yl)-2,3,4,9-tetrahydro-1H-carbazole-8-carboxamide], the half-life ([1]; both sexes, 5 mg, at low dose levels, read-out: T1/2 (converted)) was ~420 min, the half-life ([1]; both sexes, at therapeutic doses, read-out: Mean T1/2) was ≤ 660 min and the half-life ([1]; both sexes, single dose, 5–900 mg dose range, read-out: Mean T1/2 (half-life), range over doses) was 420 to 660 min. The Tmax ([1]; both sexes, single dose, 5–900 mg dose range, read-out: Median Tmax (time of peak concentrations)) was ≤ 2 h, the half-life ([1]; 5 mg, SAD day 1, 5 mg, n = 5, read-out: T1/2 mean (SD) (converted)) was 412 min and the half-life ([1]; 15 mg, SAD day 1, 15 mg, n = 6, read-out: T1/2 mean (SD) (converted)) was 481 min. It also gave a half-life ([1]; 50 mg, SAD day 1, 50 mg, n = 6, read-out: T1/2 mean (SD) (converted)) of 582 min, a half-life ([1]; 100 mg, SAD day 1, 100 mg, n = 6, read-out: T1/2 mean (SD) (converted)) of 618 min and a half-life ([1]; 300 mg, SAD day 1, 300 mg, n = 6, read-out: T1/2 mean (SD) (converted)) of 636 min. For the same molecule, the half-life ([1]; 900 mg, SAD day 1, 900 mg, n = 6, read-out: T1/2 mean (SD) (converted)) was 642 min, the AUC(0-inf) ([1]; SAD day 1, 5 mg, n = 5, read-out: AUC(inf) geometric mean (%CV)) was 102 ng·h/mL and the AUC(0-t) ([1]; SAD day 1, 5 mg) was 83.1 ng·h/mL. The Cmax ([1]; SAD day 1, 5 mg) was 9.03 ng/mL, the Tmax ([1]; SAD day 1, 5 mg, n = 6, read-out: Tmax median (min, max)) was 2.03 h and the AUC(0-t) ([1]; SAD day 1, 15 mg) was 369 ng·h/mL. It also gave an AUC(0-inf) ([1]; SAD day 1, 15 mg, n = 6, read-out: AUC(inf) geometric mean (%CV)) of 388 ng·h/mL, a Cmax ([1]; SAD day 1, 15 mg) of 36.9 ng/mL and a Tmax ([1]; SAD day 1, 15 mg, n = 6, read-out: Tmax median (min, max)) of 2 h. For the same molecule, the AUC(0-t) ([1]; SAD day 1, 50 mg) was 1560 ng·h/mL, the AUC(0-inf) ([1]; SAD day 1, 50 mg, n = 6, read-out: AUC(inf) geometric mean (%CV)) was 1590 ng·h/mL and the Cmax ([1]; SAD day 1, 50 mg) was 185 ng/mL. It also gave a Tmax ([1]; SAD day 1, 50 mg, n = 6, read-out: Tmax median (min, max)) of 1 h, an AUC(0-t) ([1]; SAD day 1, 100 mg) of 3000 ng·h/mL and an AUC(0-inf) ([1]; SAD day 1, 100 mg, n = 6, read-out: AUC(inf) geometric mean (%CV)) of 3020 ng·h/mL. The Cmax ([1]; SAD day 1, 100 mg) was 311 ng/mL, the Tmax ([1]; SAD day 1, 100 mg, n = 6, read-out: Tmax median (min, max)) was 1.5 h and the AUC(0-t) ([1]; SAD day 1, 300 mg) was 11300 ng·h/mL. The AUC(0-inf) ([1]; SAD day 1, 300 mg, n = 6, read-out: AUC(inf) geometric mean (%CV)) was 11400 ng·h/mL, the Cmax ([1]; SAD day 1, 300 mg) was 1080 ng/mL and the Tmax ([1]; SAD day 1, 300 mg, n = 6, read-out: Tmax median (min, max)) was 1.02 h. It also gave an AUC(0-t) ([1]; SAD day 1, 900 mg) of 28000 ng·h/mL, an AUC(0-inf) ([1]; SAD day 1, 900 mg, n = 6, read-out: AUC(inf) geometric mean (%CV)) of 28100 ng·h/mL and a Cmax ([1]; SAD day 1, 900 mg) of 1880 ng/mL. For the same molecule, the Tmax ([1]; SAD day 1, 900 mg, n = 6, read-out: Tmax median (min, max)) was 2 h and the “Effect on the pharmacokinetics of MTX” value [2] was “did not affect the pharmacokinetics of MTX”.
